The values below come from US11332472B2, “Substituted piperidines as inhibitors of ubiquitin specific protease 7” (LES LABORATOIRES SERVIER, priority 2017, dated 2022).

One assay concerns the target T1, USP7 (Homo sapiens, UniProt Q93009, C315A).
T1 construct: 0.25 nM His-His-USP7 (aa208-560, [C315A]) was incubated with compound; His-His (N)
The experiment in a line: Inhibition of USP7 by Fluorescence Intensity (FLINT) readings, Ubiquitin-Rhodamine-110 substrate. It is filed as biochemical. The note with it: 0.25 nM His-His-USP7 (aa208-560, [C315A]); compound 60 minutes at 30° C.; 500 nM Ubiquitin-Rhodamine substrate; 11-point curves. The gist of the method: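 His-His-USP7 (aa208-560, C315A) at 0.25 nM was preincubated with compound for 60 min at 30 °C in 100 mM Bicine pH 8.0, 0.01% Triton X-100, 1 mM TCEP, 10% DMSO. 500 nM ubiquitin-rhodamine-110 was then added, with fluorescence (Ex 485/Em 535 nm) read every 3 min for 21 min. IC50 came from kinetic-rate inhibition, 11-point curves, 4-parameter fit.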

In assay [1] the test system is MM 1S multiple myeloma tumour cell line. The experiment in a line: In vitro cytotoxicity, MTT assay, MM1S cells. Type of assay: cell-based. The following applies: Homo sapiens, MM1.S, 96 hours exposure. The procedure:
The cytotoxicity studies were evaluated by MTT assay and carried out on MM 1S multiple myeloma or Z138 mantle cell lymphoma tumour cell lines. The cells are distributed onto microplates and exposed to the test compounds for 96 hours. The cell viability is then quantified by a colorimetric assay, the Microculture Tetrazolium Assay (Carmichael et. al., Cancer Res. […], 47, 936-942).
(In general: Formazan colour is commonly taken as a measure of viable cells.)

T1 sequence (Q93009 208-560 C315A): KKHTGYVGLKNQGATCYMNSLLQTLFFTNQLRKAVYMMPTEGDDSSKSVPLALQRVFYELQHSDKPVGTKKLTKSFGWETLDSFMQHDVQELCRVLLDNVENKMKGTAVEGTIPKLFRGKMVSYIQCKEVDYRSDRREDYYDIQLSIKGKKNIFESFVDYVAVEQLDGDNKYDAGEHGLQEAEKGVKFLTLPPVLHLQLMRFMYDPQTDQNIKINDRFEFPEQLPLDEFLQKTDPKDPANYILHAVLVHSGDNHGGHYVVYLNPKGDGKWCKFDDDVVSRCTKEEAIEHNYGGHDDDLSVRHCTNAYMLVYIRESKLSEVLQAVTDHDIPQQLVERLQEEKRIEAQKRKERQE

Regarding `O=C([C@@H]1CCCC[C@H]1n1cccc1)N1CCC(O)(Cn2cnc3c(ccn3-c3ccccc3)c2=O)CC1` (racemic) [Example 12, 3-[[4-hydroxy-1-[trans-2-pyrrol-1-ylcyclohexanecarbonyl]-4-piperidyl]methyl]-7-phenyl-pyrrolo[2,3-d]pyrimidin-4-one], the IC50 at USP7 stood at 71.1 nM; in assay [1], 34.5 nM.
Regarding `O=C([C@@H]1CCCC[C@H]1c1ccccc1)N1CCC(O)(Cn2cnc3c(ncn3-c3ccccc3)c2=O)CC1` (relative stereo) [Example 20, 1-[[4-hydroxy-1-(trans-2-phenylcyclohexanecarbonyl)-4-piperidyl]methyl]-9-phenyl-purin-6-one], the IC50 against USP7 was 29.3 nM; in assay [1], 210 nM.
In the case of `O=C([C@@H]1CCCC[C@H]1c1ccccc1)N1CCC(O)(Cn2cnc3[nH]ccc3c2=O)CC1` (relative stereo) [Example 92, 3-[[4-hydroxy-1-(trans-2-phenylcyclohexanecarbonyl)-4-piperidyl]methyl]-7H-pyrrolo[2,3-d]pyrimidin-4-one], the IC50 against USP7 came out at 124 nM; in assay [1] it was 523 nM.
The corresponding values for `O=C([C@@H]1CCCC[C@H]1c1ccc(F)cc1)N1CCC(O)(Cn2cnc3c(ccn3-c3ccccc3)c2=O)CC1` (single isomer, unassigned) [Example 43, 3-[[1-[trans-2-(4-fluorophenyl)cyclohexanecarbonyl]-4-hydroxy-4-piperidyl]methyl]-7-phenyl-pyrrolo[2,3-d]pyrimidin-4-one] are 9.81 nM and 32.3 nM.
The corresponding values for `O=C(Cc1ccc2c(c1)NC(=O)C2)Nc1ccc2ncn(CC3(O)CCN(C(=O)[C@@H]4CCCC[C@H]4c4ccccc4)CC3)c(=O)c2n1` (relative stereo) [Example 102, N-[3-[[4-hydroxy-1-(trans-2-phenylcyclohexanecarbonyl)-4-piperidyl]methyl]-4-oxo-pyrido[3,2-d]pyrimidin-6-yl]-2-(2-oxoindolin-6-yl)acetamide] are 15.8 nM and 5390 nM.
The corresponding values for `O=C([C@@H]1CCC(F)(F)C[C@H]1c1ccccc1)N1CCC(O)(Cn2cnc3c(ccn3-c3ccccc3)c2=O)CC1` (single isomer, unassigned) [Example 36, 3-[[1-[trans-4,4-difluoro-2-phenyl-cyclohexanecarbonyl]-4-hydroxy-4-piperidyl]methyl]-7-phenyl-pyrrolo[2,3-d]pyrimidin-4-one] are 75.3 nM and 126 nM.
For the molecule `COc1ccc(-n2ccc3c(=O)n(CC4(O)CCN(C(=O)[C@@H]5CCCC[C@H]5n5cccc5)CC4)cnc32)cc1` (racemic) [Example 15], the IC50 came to 26.1 nM on USP7 and 8.76 nM in assay [1].
On the same counts, the results for `O=C([C@@H]1CCCC[C@H]1c1ccccc1)N1CCC(O)(Cn2cnc3c(ccn3-c3ccsc3)c2=O)CC1` (relative stereo) [Example 23, 3-[[4-hydroxy-1-(trans-2-phenylcyclohexanecarbonyl)-4-piperidyl]methyl]-7-(3-thienyl)pyrrolo[2,3-d]pyrimidin-4-one] are 17.2 nM and 70.1 nM.
The corresponding values for `COc1ccc(-n2ccc3c(=O)n(CC4(O)CCN(C(=O)C5CCC(=O)N(C)C5c5ccccc5)CC4)cnc32)cc1` (single isomer, unassigned) [Example 117, 3-{[4-hydroxy-1-trans-1-methyl-6-oxo-2-phenylpiperidine-3-carbonyl)piperidin-4-yl]methyl}-7-(4-methoxyphenyl)-3,7-dihydro-4H-pyrrolo[2,3-d]pyrimidin-4-one] are 30.9 nM and 26.4 nM.
Turning to `O=C([C@@H]1CC(F)(F)CC[C@H]1c1ccccc1)N1CCC(O)(Cn2cnc3c(ccn3-c3ccccc3)c2=O)CC1` (single isomer, unassigned) [Example 32, 3-[[1-[trans-5,5-difluoro-2-phenyl-cyclohexanecarbonyl]-4-hydroxy-4-piperidyl]methyl]-7-phenyl-pyrrolo[2,3-d]pyrimidin-4-one], the IC50 at USP7 came to 35.3 nM; in assay [1], 15.8 nM.

Usually IC50 stands for the concentration that inhibits the measured activity by half. The low end stands for higher potency, the high end for lower potency.
